Measured values reported in patent US9763980B2, “Combined chemical modification of sphingosine-1-phosphate (S1P) and CXCR4 signalling pathways for hematopoietic stem cell (HSC) mobilization and engraftment” (Children's Medical Center Corporation, priority 2011, dated 2017).
“Also recorded” adds a separate entry of the source.

How the values were obtained:
autoimmune myocarditis = conditions: rat model for autoimmune myocarditis; cited from earlier work
[1] = system: CHT hematopoiesis (HSPC markers cmyb and runx1 in the CHT); test: Zebrafish embryo chemical treatment and dose matrices, whole mount in situ hybridization of cmyb/runx1 in the CHT; format: in vivo; conditions: for Experimental data: concentration of S1PR1 modulating agent in the combination effective at increasing HSC engraftment / Experimental data: concentration of S1PR1 modulating agent in the combination effective at increasing HSC mobilization: combination with AMD3100; for mobilization of HSC from the bone marrow in vivo: combination with AMD3100 in specific ratios; for rescue of the effect of 25 μM W146 on cmyb/runx1 expression: addition of agent to W146; for cmyb/runx1 expression in the CHT (CHT hematopoiesis): agent alone, treatment from 48 hpf, 72 hpf embryos
Experimental: Transgenic zebrafish embryos were intercrossed and selected using epifluorescence (e.g. Runx1+23:EGFP, cmyb:EGFP^4, cd41:EGFP^2, kdrl:DsRed2^31). Live imaging was performed using a spinning disk confocal microscope with an incubated chamber. Zebrafish embryos were mounted and imaged as previously described. Live mouse fetal liver explants were prepared as previously described for aorta-gonad-mesonephros tissue^10. Image processing was done primarily with Fluorender^32 and ImageJ, which included the MTrackJ plugin^33 for manual cell tracking. For chemical screening and dose matrices, stage-matched AB embryos were dechorionated and arrayed 8-10/well in 96-well mesh-bottomed plates (Millipore). Embryos were treated from 48-72 hpf by placement directly in 96-well receiver plates containing small molecules diluted in E3 media+1% DMSO. Embryos were checked for circulation before fixation. Whole mount in situ hybridization was performed as previously described^34, with the addition of 0.2% glutaraldehyde to 4% formaldehyde at the post-fixation step. […] Lineage tracing was performed by injecting cd41:EGFP positive embryos with caged fluorescein conjugated to dextran (MW 10000). Embryos were uncaged in the DA at 28 hpf with a UV laser. Embryos were raised to 46 hpf in E3 media or E3+S1PR1 antagonist W146 (10 μM), then fixed for antibody staining to detect double positive cd41:EGFP and uncaged FITC HSPCs. Receptor fusion cDNAs (25 pg) were injected into one-cell embryos with Tol2 RNA (15 pg). Flow cytometry was performed using a LSR II and cells were sorted using a FACSAria (BD Biosciences). Flow cytometry data was analyzed using FACSDiva and FlowJo software.
Having followed newly born aortic HSPCs to the intermediate tissue, the inventors assessed the signaling pathways involved in embryonic migration. The inventors designed a chemical genetic screen to introduce small molecules to the zebrafish embryo from the peak window of HSPC migration to the CHT (48-72 hpf).

[2] = target: T1, endothelial S1P1 receptors (Mus musculus, UniProt O08530); conditions: type I diabetic vascular endothelium; cited from earlier work
T1 construct: host or cells: vascular endothelium (as cited)

[3] = target: T1, endothelial S1P1 receptors; conditions: cited from earlier work
[4] = in vivo; cited from earlier work
HSPCs in the CHT [5] = test: Lineage tracing of HSPCs from DA to CHT (cd41:EGFP and uncaged FITC); format: in vivo, zebrafish; conditions: W146 10 μM, versus control
Experimental: Transgenic zebrafish embryos were intercrossed and selected using epifluorescence (e.g. Runx1+23:EGFP, cmyb:EGFP^4, cd41:EGFP^2, kdrl:DsRed2^31). Live imaging was performed using a spinning disk confocal microscope with an incubated chamber. Zebrafish embryos were mounted and imaged as previously described. Live mouse fetal liver explants were prepared as previously described for aorta-gonad-mesonephros tissue^10. Image processing was done primarily with Fluorender^32 and ImageJ, which included the MTrackJ plugin^33 for manual cell tracking. For chemical screening and dose matrices, stage-matched AB embryos were dechorionated and arrayed 8-10/well in 96-well mesh-bottomed plates (Millipore). Embryos were treated from 48-72 hpf by placement directly in 96-well receiver plates containing small molecules diluted in E3 media+1% DMSO. Embryos were checked for circulation before fixation. Whole mount in situ hybridization was performed as previously described^34, with the addition of 0.2% glutaraldehyde to 4% formaldehyde at the post-fixation step. Morpholino (s1pr1/edg1 ATG-MO^23 obtained from Gene Tools, LLC) was injected into one-cell Tu or cmyb:EGFP; kdrl:DsRed2 transgenic embryos at a 1 ng dose (higher doses stop circulation). […] Flow cytometry data was analyzed using FACSDiva and FlowJo software. […]

HSPCs in the CHT [6] = test: Time-lapse live imaging and cell tracking in the CHT (Runx1+23:EGFP; kdrl:DsRed2); format: in vivo, zebrafish
Experimental: Transgenic zebrafish embryos were intercrossed and selected using epifluorescence (e.g. Runx1+23:EGFP, cmyb:EGFP^4, cd41:EGFP^2, kdrl:DsRed2^31). Live imaging was performed using a spinning disk confocal microscope with an incubated chamber. Zebrafish embryos were mounted and imaged as previously described. Live mouse fetal liver explants were prepared as previously described for aorta-gonad-mesonephros tissue^10. Image processing was done primarily with Fluorender^32 and ImageJ, which included the MTrackJ plugin^33 for manual cell tracking. For chemical screening and dose matrices, stage-matched AB embryos were dechorionated and arrayed 8-10/well in 96-well mesh-bottomed plates (Millipore). Embryos were treated from 48-72 hpf by placement directly in 96-well receiver plates containing small molecules diluted in E3 media+1% DMSO. Embryos were checked for circulation before fixation. Whole mount in situ hybridization was performed as previously described^34, with the addition of 0.2% glutaraldehyde to 4% formaldehyde at the post-fixation step. Morpholino (s1pr1/edg1 ATG-MO^23 obtained from Gene Tools, LLC) was injected into one-cell Tu or cmyb:EGFP; kdrl:DsRed2 transgenic embryos at a 1 ng dose (higher doses stop circulation). Lineage tracing was performed by injecting cd41:EGFP positive embryos with caged fluorescein conjugated to dextran (MW 10000). Embryos were uncaged in the DA at 28 hpf with a UV laser. Embryos were raised to 46 hpf in E3 media or E3+S1PR1 antagonist W146 (10 μM), then fixed for antibody staining to detect double positive cd41:EGFP and uncaged FITC HSPCs. Receptor fusion cDNAs (25 pg) were injected into one-cell embryos with Tol2 RNA (15 pg). Flow cytometry was performed using a LSR II and cells were sorted using a FACSAria (BD Biosciences). Flow cytometry data was analyzed using FACSDiva and FlowJo software.
Time-lapse live imaging. Staged transgenic zebrafish embryos were selected and mounted for imaging in 1% LMP agarose with E3 media and tricaine as described. Pregnant C57/BL6 mice were dissected at E11 (vaginal plug observation was E0). Embryos were removed from the uterus in PBS with 10% FCS and penicillin-streptomycin. Embryos were staged as E11 by counting ˜42 somite pairs. Fetal livers were removed from the embryo and treated as described by Boisset and colleagues (“protocol b”)^10. Zebrafish embryos and fetal liver explants were imaged in MatTek glass bottom dishes (No. 1.5 cover slip). […] Quantification of 12 hours of CHT tracking data per time-lapse movie allowed us to define engrafted cells as stationary (i.e. a speed of <0.31 microns/minute) and resident in the CHT for at least 3 hours, otherwise they were scored as migratory and transient. […]

[7] = dose matrices, agent combined with AMD3100
[8] = addition of AUY954, 54 hpf embryos
[9] = W146 10 μM, 38-50 hpf, versus control

T1 sequence (O08530 whole entry): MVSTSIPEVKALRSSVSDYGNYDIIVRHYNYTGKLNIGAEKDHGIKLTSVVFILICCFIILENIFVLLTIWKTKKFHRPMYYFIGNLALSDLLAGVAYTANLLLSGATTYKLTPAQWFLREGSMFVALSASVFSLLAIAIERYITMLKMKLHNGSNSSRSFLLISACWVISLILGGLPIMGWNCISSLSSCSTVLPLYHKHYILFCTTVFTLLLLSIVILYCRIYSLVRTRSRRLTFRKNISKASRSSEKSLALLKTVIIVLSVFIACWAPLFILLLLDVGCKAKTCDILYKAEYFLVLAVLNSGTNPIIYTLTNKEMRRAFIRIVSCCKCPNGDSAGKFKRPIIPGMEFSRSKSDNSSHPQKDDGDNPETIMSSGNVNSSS

Structure (SMILES): NC(CO)(CO)CCc1ccc(Sc2cccc(OCc3ccccc3)c2)cc1Cl [KRP-203]
- therapeutic efficacy (autoimmune myocarditis): therapeutic efficacy

Structure (SMILES): FC(F)(F)c1cccc(-c2noc(-c3cc(-c4ccccc4)c(C(F)(F)F)s3)n2)c1 [SEW2871, 5-[4-phenyl-5-(trifluoromethyl)-2-thienyl]-3-[3-(trifluoromethyl)phenyl]-1,2,4-oxadiazole]
- CHT score (greatest engraftment in dose matrix) ([1]; 10 μM AMD3100 and 10 μM SEW2871): +2
- Experimental data: concentration of S1PR1 modulating agent in the combination effective at increasing HSC engraftment [1]: 10 µM
- Experimental data: concentration of S1PR1 modulating agent in the combination effective at increasing HSC mobilization [1]: 15 µM
- mobilization of HSC from the bone marrow in vivo [1]: improves mobilization
- CHT hematopoiesis [1, 7]: synergistic increases
- proinflammatory monocyte/endothelial interactions [2]: prevents
- protection of the vasculature against TNFα-mediated monocyte/endothelial interactions [3]: protects
- bradycardia [4]: does not induce bradycardia

Structure (SMILES): O=C(O)CCNCc1ccc2sc(-c3ccc(-c4ccccc4)c(C(F)(F)F)c3)cc2c1 [AUY954, 3-[[2-[4-phenyl-3-(trifluoromethyl)phenyl]-1-benzothiophen-5-yl]methylamino]propanoic acid]
- CHT score (greatest engraftment in dose matrix) ([1]; 10 μM AMD3100 and 12.5 μM AUY945): +2
- rescue of the cmyb/runx1 decrease caused by 25 μM AMD3100 [1, 8]: partially rescued
- rescue of the effect of 25 μM SKI-2 [1, 8]: rescued
- rescue of the effect of 25 μM W146 on cmyb/runx1 expression ([1]; 54 hpf embryos): rescued
- Experimental data: concentration of S1PR1 modulating agent in the combination effective at increasing HSC engraftment [1]: 12.5 µM
- CHT hematopoiesis [1, 7]: synergistic increases

Structure (SMILES): c1cc(CN2CCCNCCNCCCNCC2)ccc1CN1CCCNCCNCCCNCC1 [AMD3100, 1,1′-[1,4-Phenylenebis(methylene)]bis[1,4,8,11-tetraazacyclotetradecane]]
- cmyb/runx1 expression in the CHT ([1]; AMD3100 25 μM, 54 hpf embryos): greatly decreases
- cmyb/runx1 expression in the CHT (CHT hematopoiesis) [1]: dose-dependently reduces; also recorded: decreases CHT hematopoiesis
- CHT hematopoiesis ([1]; each agent alone at the doses of the effective FTY720/AMD3100 combination): no effect

Structure (SMILES): CCCCCCCCCCCCC/C=C/[C@@H](O)[C@@H](N)COP(=O)(O)O [Compound S1P, sphingosine-1-phosphate]
- rescue of the effect of 25 μM W146 on cmyb/runx1 expression ([1]; 54 hpf embryos): rescued
- cmyb/runx1 expression in the CHT (CHT hematopoiesis) [1]: altered the migration pattern of HSPCs; also recorded: alters cmyb/runx1 expression pattern
- CHT hematopoiesis [1, 7]: synergistic increases

Structure (SMILES): CCCCCCc1cccc(NC(=O)[C@H](N)CCP(=O)(O)O)c1 [Compound W146, (R)-3-Amino-4-(3-hexylphenylamino)-4-oxobutylphosphonic acid]
- CHT score in dose matrix ([1]; 5 μM AMD3100 and 10 μM W146): greatest CHT score
- cmyb/runx1 expression in the CHT ([1]; W146 25 μM, 54 hpf embryos): decreases
- Experimental data: concentration of S1PR1 modulating agent in the combination effective at increasing HSC engraftment [1]: 10 µM
- Experimental data: concentration of S1PR1 modulating agent in the combination effective at increasing HSC mobilization [1]: 5 μM W146
- mobilization of HSC from the bone marrow in vivo [1]: improves mobilization
- number of lineage traced HSPCs in the CHT (HSPCs in the CHT [5]; embryos raised to 46 hpf): increased
- morphology of lineage traced HSPCs in the CHT (HSPCs in the CHT [5]): morphology that differed from the control; also recorded: morphological changes
- number of engrafted cells (HSPCs in the CHT [6]; [9]): decreased
- percentage of migratory cells (HSPCs in the CHT [6]; [9]): increased
- tracked cells in the CHT (HSPCs in the CHT [6]; [9]): increased
- CHT colonization (HSPCs in the CHT [6]; embryos in the antagonist during imaging): interferes with CHT colonization

Structure (SMILES): Oc1ccc(Nc2nc(-c3ccc(Cl)cc3)cs2)cc1 [SKI-2]
- effect of SKI-2 in CHT hematopoiesis assay ([1]; SKI-2 25 μM, 54 hpf embryos): depleting endogenous levels of S1P
- effect on improving engraftment (CHT) ([1]; SKI-2 alone): little effect
